Data: patent US11976063B2, “Pharmaceutical composition comprising berberine and ursodeoxycholic acid for the treatment of various diseases or disorders” (priority 2014, dated 2024)
Structures can show the parent of a compound that is named as a salt.

What was measured:
[1] = tested on: high fat diet (HFD) induced non-alcoholic fatty liver mice; experiment: High fat diet induced non-alcoholic fatty liver mice model (Example 5); type: in vivo, NIH male mice
From the text: This example describes an in vivo efficacy study of BUDCA disclosed in the present invention using a high fat diet (HFD) induced non-alcoholic fatty liver mice model.
91 NIH male mice of 4 weeks old were obtained from Vital River Laboratories (Beijing, China). After acclimatization for one week, 13 mice were selected as control group (Group 1, G1) with normal chow diet fed, and the other 78 mice were fed with HFD (in which 40% of calories is from fat) for 4 weeks to establish an animal model resembling the pathophysiology of non-alcoholic fatty liver in human.
Following 4 weeks of high fat dietary intervention, the 78 mice were divided into 6 groups according to body weight (n=13 per group): • Group 2, G2: Vehicle control (0.5% CMC-Na solution) • Group 3, G3: Low-dose group of BUDCA (30 mg/kg) • Group 4, G4: Middle-dose group of BUDCA (100 mg/kg) • Group 5, G5: High-dose group of BUDCA (300 mg/kg) • Group 6, G6: BBR control group (Berberine HCl, 150 mg/Kg) • Group 7, G7: UDCA control group (Ursodeoxycholic acid, 150 mg/Kg)
The mice from G2 to G7 were administered with the corresponding testing articles indicated above once daily by intragastric gavage. HFD continued throughout the duration of the treatment of 6 weeks. The normal mice (G1) were treated with vehicle (0.5% CMC-Na solution) via intragastric gavage. At the end of experiment, the following biochemical parameters were measured and tests were carried out: • Body weight, the weight ratio of liver • Total cholesterol (TC) and triglyceride (TG) levels, high density lipoprotein cholesterol (HDL-C) and low density lipoprotein cholesterol (LDL-C) levels • Alanine aminotransferase (ALT) and aspartate aminotransferase (AST) levels • Superoxide dismutase (SOD) activity and malondialdehyde (MDA) level • Oral glucose tolerance test (OGTT) • Histopathological examination of liver ([…] staining)
After 6 weeks treatment, blood was collected via retro-orbital bleeding of each 12-hour fasted animal. Liver was harvested by surgery for histopathology analysis after weight measurement. Then the serum was isolated for the determination of TC, TG, HDL-C, LDL-C, ALT, AST, SOD and MDA.
One week before sacrifice (Week 5 of treatment), an oral glucose tolerance test (OGTT) was performed in 12-hour fasted animals. For the OGTT, all mice received an oral glucose challenge at 2.0 g/Kg and the blood glucose concentrations were determined by glucometer (ACCU-CHEK Active, Roche) at 0, 30, 60, 90 and 120 min.
The liver tissue was histopathologically evaluated by […] staining after frozen section.

[2] = tested on: high fat diet (HFD) induced obesity mice; experiment: High fat diet induced obesity mice model (Example 2); type: in vivo, NIH male mice; conditions: used individually at 50 mg/Kg, once daily i.g., interim results at 15 days
From the text: This example describes an in vivo efficacy study of the combinations disclosed in the present invention using a high fat diet (HFD) induced obesity mice model.
Fifty NIH male mice of 4 weeks old were acquired (Guangzhou Institute of Laboratory Animal). After acclimatization for one week, eight mice were selected as normal control; the rest forty-two mice were fed with HFD (in which 40% of calories is from fat) for 14 days to establish a HFD induced obesity mice model resembling the pathophysiology of metabolic syndrome in human. Normal control mice were fed with normal chow diet. […]
The mice from Group 1 to 4 were treated with the corresponding testing articles indicated above once daily by intragastric gavage. […] Blood glucose (fasting and non-fasting), total cholesterol (TC) and triglyceride (TG) levels, food intake, water intake and body weight were measured throughout the study.
On day 28 of the treatment, an oral glucose tolerance test (OGTT) was performed in 12-hour fasted animals. For the OGTT, after the measurement of the basal glucose concentration (T=−30 min), mice received an oral glucose challenge at 2.5 g/Kg and glucose values were determined by glucometer (ACCU-CHEK Active, Roche) at 0, 30, 60 and 120 min. […]

[3] = tested on: high fat diet (HFD) and streptozotocin (STZ) induced diabetic mice; type: in vivo
Protocol: This example describes an in vivo efficacy study of the combinations disclosed in the present invention using a high fat diet (HFD) and streptozotocin (STZ) induced diabetic mice model.
Sixty NIH male mice of 4 weeks old were acquired from Guangzhou Institute of Laboratory Animal. After acclimatization for one week, five mice were selected as normal control group (Group 1), the rest fifty-five mice were administered single dose of STZ at the dose of 40 mg/kg, and fed with HFD (in which 40% of calories is from fat) for 7 days to establish a diabetic animal model resembling the pathophysiology of type 2 diabetes in human. Mice in the normal control group were not administered STZ, and fed with normal chow diet.
The mice from Group 2 to 5 were treated with the corresponding testing articles indicated above once daily by intragastric gavage. HFD continued throughout the duration of the treatment of 28 days. The normal mice (Group 1) were treated with normal saline by intragastric gavage. Fasting blood glucose, total cholesterol (TC) and triglyceride (TG) levels, food intake, water intake and body weight were measured throughout the study.
On day 28 of the treatment, an oral glucose tolerance test (OGTT) was performed in 12-hour fasted animals. For the OGTT, after the measurement of the basal glucose concentration (T=−30 min), mice received an oral glucose challenge at 2.5 g/kg and glucose values were determined by glucometer (ACCU-CHEK Active, Roche) at 0, 30, 60 and 120 min.
After OGTT, blood samples were collected for the measurement of blood glucose, TC and TG. The mice were sacrificed, and the pancreas, liver, kidney and fat were harvested for histopathology analysis.

[4] = 150 mg/Kg (G6 Berberine HCl; G7 UDCA), i.g. once daily, 6 weeks, HFD, mean ± S.E.M
[5] = serum, 150 mg/Kg (G6 Berberine HCl; G7 UDCA), i.g. once daily, 6 weeks, HFD, mean ± S.E.M
[6] = Day 0 (before treatment), same doses
[7] = Day 3, same doses, once daily i.g.
[8] = Day 27, same doses, once daily i.g.
[9] = Day 28, same doses, once daily i.g.

Compound	Body weight [1, 4] [g]	Weight ratio of liver [1, 4] [%]	ALT [1, 5] [U/L]	AST [1, 5] [U/L]	HDL-C [1, 5] [mmol/L]	LDL-C [1, 5] [mmol/L]	SOD [1, 5] [U/mL]	TC [1, 5] [mmol/L]	TG [1, 5] [mmol/L]	Pharmacological effects comparing to the vehicle control group [2]	further results
COc1ccc2cc3[n+](cc2c1OC)CCc1cc2c(cc1-3)OCO2 [Berberine HCl, reference compound]	42.4 ± 1.37	4.26 ± 0.12	37.1 ± 4.08	198.7 ± 18.93	2.47 ± 0.20	1.42 ± 0.21	77.03 ± 8.98	5.97 ± 0.47	1.00 ± 0.08		MDA [1, 5]: 9.3 ± 2.14 µM
O=C(O)CC(O)(C(=O)O)C(O)C(=O)O (stereo not drawn) [hydroxycitric acid, 1,2-dihydroxypropane-1,2,3-tricarboxylic acid]										neither berberine (Group 2), nor hydroxycitric acid (Group 3) demonstrated any pharmacological effects	
CN(C)C(=N)NC(=N)N [Metformin, N,N-Dimethylimidodicarbonimidic diamide]											Effect on symptoms of diabetes (overall efficacy) ([3]; 28 days treatment, HFD/STZ mice): did not demonstrate a clear efficacy; Fasting blood glucose, Day 0 ([3]; Day 0 (before treatment), metformin 300 mg/kg, berberine 150 + UA 150 mg/kg, berberine 150 + EPA 75 + DHA 75 mg/kg): 24.08 ± 5.44 mmol/L; Weight, Day 0 ([3]; Day 0 (before treatment), metformin 300 mg/kg, berberine 150 + UA 150 mg/kg, berberine 150 + EPA 75 + DHA 75 mg/kg, once daily i.g.): 26.30 ± 2.54 g; Total Cholesterol, Day 0 [3, 6]: 297.96 ± 67.09 mg/dL; Triglyceride, Day 0 [3, 6]: 2.40 ± 1.03 mmol/L; Food Intake, Day 3 [3, 7]: 8.66 g; Water intake, Day 3 [3, 7]: 19.40 mL; Water intake, Day 6 ([3]; Day 6, same doses, once daily i.g.): 23.60 mL; Weight, Day 27 ([3]; Day 27, metformin 300 mg/kg, berberine 150 + UA 150 mg/kg, berberine 150 + EPA 75 + DHA 75 mg/kg, once daily i.g.): 36.99 ± 3.90 g; Food Intake, Day 27 [3, 8]: 9.37 g; Water intake, Day 27 [3, 8]: 34.40 mL; Fasting blood glucose, Day 28 [3, 9]: 21.66 ± 4.71 mmol/L; Total Cholesterol, Day 28 [3, 9]: 436.99 ± 159.73 mg/dL; Triglyceride, Day 28 [3, 9]: 6.06 ± 6.71 mmol/L
C[C@H](CCC(=O)O)[C@H]1CC[C@H]2[C@@H]3[C@@H](O)C[C@@H]4C[C@H](O)CC[C@]4(C)[C@H]3CC[C@]12C [UDCA, 3α,7β-dihydroxy-5β-cholan-24-oic acid, reference compound]	42.0 ± 1.16	4.77 ± 0.26	30.6 ± 5.73	162.86 ± 29.42	2.13 ± 0.33	1.37 ± 0.26	44.75 ± 11.99	4.77 ± 0.70	1.20 ± 0.22		
COc1ccc2cc3[n+](cc2c1OC)CCc1cc2c(cc1-3)OCO2 [berberine, 5,6-dihydro-9,10-dimethoxybenzo[g]-1,3-benzodioxolo[5,6-a]quinolizinium]										neither berberine (Group 2), nor hydroxycitric acid (Group 3) demonstrated any pharmacological effects	Animals showing gastrointestinal side effects at the time of sacrifice ([1]; berberine treatment group (150 mg/Kg), 6 weeks i.g.): 50 % of animals
